Experimental data from US9499550B2 (BRISTOL-MYERS SQUIBB COMPANY, priority 2012, dated 2016).
Like-named read-outs stand apart in the source and are kept apart here.

Tests used:
[1] = tested on: HCV genotype 1a (H77 strain) replicon in HUH-7 cells; experiment: HCV replicon luciferase reporter assay, genotype 1a; assay type: cell-based; settings: Hepatitis C virus, Huh-7, 72 h, 3 days incubation, read-out: LE_1a (EC50, range)
Method in brief: (§1)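 Replicon inhibition for both genotypes was measured as Renilla luciferase signal (EnduRen, 7.5 μM final, 2 h) after 3-day, 37° C exposure of replicon-bearing HUH-7 cells in 4% FCS DMEM, 0.5% DMSO. The 1b construct carries S1179I; the 1a H77 construct carries P1496L and S2204I. Twenty-point, 3-fold dilutions were fitted four-parametrically for EC50, and CC50 was taken from multiplexed Cell Titer-Blue.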

[2] = tested on: HCV genotype 1b (Con1) replicon in HUH-7 cells; experiment: HCV replicon luciferase reporter assay, genotype 1b; assay type: cell-based; settings: Hepatitis C virus, Huh-7, 72 h, 3 days incubation, read-out: LE_1b (EC50, range)
Method in brief: as §1

[3] = HCV genotype 1a replicon luciferase assay, range class
[4] = HCV genotype 1b replicon luciferase assay, range class
[5] = HCV genotype 1a replicon luciferase
[6] = HCV genotype 1b replicon luciferase

Structure (SMILES) | EC50 [1, 3] [nM] | EC50 [2, 4] [nM] | EC50 [1, 5] [nM] | EC50 [2, 6] [nM] | further results
COc1ccc2c(O[C@@H]3C[C@H]4C(=O)N[C@]5(C(=O)NS(=O)(=O)C6CC6)C[C@H]5/C=C\CC[C@@H](C)C[C@@H](C)[C@H](NC(=O)OC(C)(C)C(F)(F)F)C(=O)N4C3)nc(-c3ccc(OC(C)C)cc3)nc2c1 [Compound 3022, 1,1,1-trifluoro-2-methylpropan-2-yl((2R,6S,7R,9R,13aS,14aR,16aS,Z)-14a-((cyclopropylsulfonyl)carbamoyl)-2-((2-(4-isopropoxyphenyl)-7-methoxyquinazolin-4-yl)oxy)-7,9-dimethyl-5,16-dioxo-1,2,3,5,6,7,8,9,10,11,13a,14,14a,15,16,16a-hexadecahydrocyclopropa[e]pyrrolo[1,2-a][1,4]diazacyclopentadecin-6-yl)carbamate] | < 5.46 | < 5.46 |  |  | 
COc1cc2c(OC)cnc(O[C@@H]3C[C@H]4C(=O)N[C@]5(C(=O)NS(=O)(=O)C6(CO)CC6)C[C@H]5/C=C\CC[C@@H](C)C[C@@H](C)[C@H](NC(=O)OC(C)(C)C)C(=O)N4C3)c2cc1F [Compound 4122, tert-butyl (2R,6S,7R,9R,13aS,14aR,16aS,Z)-2-(7-fluoro-4,6-dimethoxyisoquinolin-1-yloxy)-14a-(1-(hydroxymethyl)cyclopropylsulfonylcarbamoyl)-7,9-dimethyl-5,16-dioxo-1,2,3,5,6,7,8,9,10,11,13a,14,14a,15,16,16a-hexadecahydrocyclopropa[e]pyrrolo[1,2-a][1,4]diazacyclopentadecin-6-ylcarbamate] |  |  | < 5.46 | < 5.46 | 
CC[C@@H]1C[C@H](C)CC/C=C\[C@@H]2C[C@@]2(C(=O)NS(=O)(=O)C2(C)CC2)NC(=O)[C@@H]2C[C@@H](Oc3cc4cc(OC)ccc4nc3OC)CN2C(=O)[C@H]1NC(=O)OC(C)(C)C [Compound 4377, tert-butyl ((2R,6S,7R,9R,13aS,14aR,16aS,Z)-2-((2,6-dimethoxyquinolin-3-yl)oxy)-7-ethyl-9-methyl-14a-(((1-methylcyclopropyl)sulfonyl)carbamoyl)-5,16-dioxo-1,2,3,5,6,7,8,9,10,11,13a,14,14a,15,16,16a-hexadecahydrocyclopropa[e]pyrrolo[1,2-a][1,4]diazacyclopentadecin-6-yl)carbamate] |  |  | 0.51 to 1 | 0.1 to 0.5 | 
COc1ccc2c(O[C@@H]3C[C@H]4C(=O)N[C@]5(C(=O)NS(=O)(=O)C6CC6)C[C@H]5/C=C\CC[C@H](C)C[C@@H](C)[C@H](NC(=O)NC(C)(C)C)C(=O)N4C3)nc(-c3ccc(OC(C)C)cn3)cc2c1 [Compound 5210, (2R,6S,7R,9S,13aS,14aR,16aS,Z)-6-(3-(tert-butyl)ureido)-N-(cyclopropylsulfonyl)-2-((3-(5-isopropoxypyridin-2-yl)-6-methoxyisoquinolin-1-yl)oxy)-7,9-dimethyl-5,16-dioxo-1,2,3,5,6,7,8,9,10,11,13a,14,14a,15,16,16a-hexadecahydrocyclopropa[e]pyrrolo[1,2-a][1,4]diazacyclopentadecine-14a-carboxamide] |  |  | < 5.46 | < 5.46 | 
CC(C)Oc1cc2c(Cl)cccc2c(O[C@@H]2C[C@H]3C(=O)N[C@]4(C(=O)NS(=O)(=O)C5(C)CC5)C[C@H]4/C=C\CC[C@H](C)C[C@@H](C)[C@H](NC(=O)OC(C)(C)C)C(=O)N3C2)n1 [Compound 1089, tert-butyl ((2R,6S,7R,9S,13aS,14aR,16aS,Z)-2-((5-chloro-3-isopropoxyisoquinolin-1-yl)oxy)-7,9-dimethyl-14a-(((1-methylcyclopropyl)sulfonyl)carbamoyl)-5,16-dioxo-1,2,3,5,6,7,8,9,10,11,13a,14,14a,15,16,16a-hexadecahydrocyclopropa[e]pyrrolo[1,2-a][1,4]diazacyclopentadecin-6-yl)carbamate] | 4.82 to 103 | < 5.46 |  |  | 
[2H]C([2H])([2H])Oc1cnc(O[C@@H]2C[C@H]3C(=O)N[C@]4(C(=O)NS(=O)(=O)C5(C)CC5)C[C@H]4/C=C\CC[C@@H](C)C[C@@H](C)[C@H](NC(=O)OC(C)(C)C(F)(F)F)C(=O)N3C2)c2ccccc12 [Compound 5103, 1,1,1-trifluoro-2-methylpropan-2-yl((2R,6S,7R,9R,13aS,14aR,16aS,Z)-7,9-dimethyl-14a-(((1-methylcyclopropyl)sulfonyl)carbamoyl)-5,16-dioxo-2-((4-(trideuteromethoxy)isoquinolin-1-yl)oxy)-1,2,3,5,6,7,8,9,10,11,13a,14,14a,15,16,16a-hexadecahydrocyclopropa[e]pyrrolo[1,2-a][1,4]diazacyclopentadecin-6-yl)carbamate] |  |  | < 5.46 | < 5.46 | 
COc1ccc2c(O[C@@H]3C[C@H]4C(=O)N[C@]5(C(=O)NS(=O)(=O)C6CC6)C[C@H]5/C=C\CC[C@@H](C)C[C@@H](C)[C@H](NC(=O)OC(C)(C)C)C(=O)N4C3)nc(-c3ccc(F)cc3)cc2c1 [Compound 3042, tert-butyl ((2R,6S,7R,9R,13aS,14aR,16aS,Z)-14a-((cyclopropylsulfonyl)carbamoyl)-2-((3-(4-fluorophenyl)-6-methoxyisoquinolin-1-yl)oxy)-7,9-dimethyl-5,16-dioxo-1,2,3,5,6,7,8,9,10,11,13a,14,14a,15,16,16a-hexadecahydrocyclopropa[e]pyrrolo[1,2-a][1,4]diazacyclopentadecin-6-yl)carbamate] | < 5.46 | < 5.46 |  |  | 
CC(C)Oc1ccc2c(O[C@@H]3C[C@H]4C(=O)N[C@]5(C(=O)NS(=O)(=O)C6CC6)C[C@H]5/C=C\CC[C@H](C)C[C@@H](C)[C@H](NC(=O)O[C@H](C)C(F)(F)F)C(=O)N4C3)nccc2c1 [Compound 5149, (R)-1,1,1-trifluoropropan-2-yl((2R,6S,7R,9S,13aS,14aR,16aS,Z)-14a-((cyclopropylsulfonyl)carbamoyl)-2-((6-isopropoxyisoquinolin-1-yl)oxy)-7,9-dimethyl-5,16-dioxo-1,2,3,5,6,7,8,9,10,11,13a,14,14a,15,16,16a-hexadecahydrocyclopropa[e]pyrrolo[1,2-a][1,4]diazacyclopentadecin-6-yl)carbamate] |  |  | 4.82 to 103 | < 5.46 | 
COc1cnc(O[C@@H]2C[C@H]3C(=O)N[C@]4(C(=O)NS(=O)(=O)C5(F)CC5)C[C@H]4/C=C\CC[C@@H](C)C[C@@H](C)[C@H](NC(=O)OC(C)(C)C)C(=O)N3C2)c2ccccc12 [Compound 4224] |  |  | < 5.46 | < 5.46 | 
C[C@@H]1CC/C=C\[C@@H]2C[C@@]2(C(=O)NS(=O)(=O)C2CC2)NC(=O)[C@@H]2C[C@@H](Oc3nccc4c5c(ccc34)N(C)CCO5)CN2C(=O)[C@@H](NC(=O)OC(C)(C)C(F)(F)F)[C@H](C)C1 [Compound 5278, 1,1,1-trifluoro-2-methylpropan-2-yl((2R,6S,7R,9R,13aS,14aR,16aS,Z)-14a-((cyclopropylsulfonyl)carbamoyl)-7,9-dimethyl-2-((4-methyl-3,4-dihydro-2H-[1,4]oxazino[2,3-f]isoquinolin-7-yl)oxy)-5,16-dioxo-1,2,3,5,6,7,8,9,10,11,13a,14,14a,15,16,16a-hexadecahydrocyclopropa[e]pyrrolo[1,2-a][1,4]diazacyclopentadecin-6-yl)carbamate] |  |  | < 5.46 | < 5.46 | 
CC[C@@H]1C[C@H](C)CC/C=C\[C@@H]2C[C@@]2(C(=O)NS(=O)(=O)C2(C)CC2)NC(=O)[C@@H]2C[C@@H](Oc3nc(OC)cc4cc(OC)c(F)cc34)CN2C(=O)[C@H]1NC(=O)OC1(C(F)(F)F)CCCOC1 (some centres unmarked) [Compound 1189] |  |  |  |  | EC50 ([1]; GETYPE1A, HCV genotype 1a replicon luciferase): 1.01 to 5 nM; EC50 ([2]; GETYPE1B, HCV genotype 1b replicon luciferase): 0.51 to 1 nM
C[C@H]1CC/C=C\[C@@H]2C[C@@]2(C(=O)NS(=O)(=O)C2(C)CC2)NC(=O)[C@@H]2C[C@@H](Oc3ncc(OCC(F)F)c4ccccc34)CN2C(=O)[C@@H](NC(=O)OC(C)(C)C)[C@H](C)C1 [Compound 1025, tert-butyl ((2R,6S,7R,9S,13aS,14aR,16aS,Z)-2-((4-(2,2-difluoroethoxyl)isoquinolin-1-yl)oxy)-7,9-dimethyl-14a-(((1-methylcyclopropyl)sulfonyl)carbamoyl)-5,16-dioxo-1,2,3,5,6,7,8,9,10,11,13a,14,14a,15,16,16a-hexadecahydrocyclopropa[e]pyrrolo[1,2-a][1,4]diazacyclopentadecin-6-yl)carbamate] | 4.82 to 103 | < 5.46 |  |  | 
COc1cc2cc(-c3ccc(OC(C)C)cc3)nc(O[C@@H]3C[C@H]4C(=O)N[C@]5(C(=O)NS(=O)(=O)C6(C)CC6)C[C@H]5/C=C\CC[C@@H](C)C[C@@H](C)[C@H](NC(=O)OC(C)(C)C(F)(F)F)C(=O)N4C3)c2cc1F [Compound 3186, 1,1,1-trifluoro-2-methylpropan-2-yl((2R,6S,7R,9R,13aS,14aR,16aS,Z)-2-((7-fluoro-3-(4-isopropoxyphenyl)-6-methoxyisoquinolin-1-yl)oxy)-7,9-dimethyl-14a-(((1-methylcyclopropyl)sulfonyl)carbamoyl)-5,16-dioxo-1,2,3,5,6,7,8,9,10,11,13a,14,14a,15,16,16a-hexadecahydrocyclopropa[e]pyrrolo[1,2-a][1,4]diazacyclopentadecin-6-yl)carbamate] |  |  | < 5.46 | < 5.46 | 
